Measured values: PubChem BioAssay (NCI)
Where “and” joins values, the source holds several entries; their conditions need not be identical. Equal values may be shown once.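 Growth conditions: 96-well plates. Treatment: test compound, 48 hours, 5 concentrations. Analysis: linear interpolation between bracketing concentrations; unreached endpoints set to highest concentration. GI50: concentration for 50% inhibition of growth. The concentration for full growth arrest is given as TGI.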

Tested on: MDA-MB-468 breast
Assay: NCI-60 cell line screen, 48 h

SMILES	GI50	TGI
CC[C@H](C)[C@H]1NC(=O)[C@@H]([C@H](O)C(C)C)NC(=O)[C@@H](C)N(C)C(=O)[C@H](C)N(C)C(=O)[C@H](CC(C)C)NC(=O)[C@H](CC(C)C)N(C)C(=O)[C@H](C)N(C)C1=O	0.536 µM	10.5 µM
COc1ccc2c(c1)[nH]c(=O)c1c3cc(OC)c(OC)cc3cn21	0.0208 µM	0.0492 µM
NC(=O)c1sc(-n2cnc3ccc(C(F)(F)F)cc32)cc1OCc1ccccc1Br	0.349 µM	0.977 µM
CCCCCCCCNC(C)C(O)c1ccc(SC(C)C)cc1 (stereo not drawn)	1.57 µM	3.24 µM
O=c1[nH]c(Sc2sc3ccc(Cl)cc3c2CBr)nc(=S)[nH]1	> 68.8 µM	> 100 µM
O=C1/C(=C/c2ccc(Cl)cc2)CN(C(=O)CCN2CCC(=NO)CC2)C/C1=C\c1ccc(Cl)cc1	0.833 µM	2.51 µM
Oc1ccc(Oc2cnc3cc(Cl)ccc3n2)cc1	26.3 µM	> 100 µM
CCOC(=O)c1ccccc1SC(C[N+](=O)[O-])c1ccccc1 (stereo not drawn)	1.71 µM	4.06 µM
CC[C@H](C)[C@H](NC(=O)NC(C)(C)C)C(=O)N(C)[C@H](C[C@@H](OC(C)=O)c1nc(C(=O)N[C@@H](Cc2ccccc2)C[C@H](C)C(=O)OC)cs1)C(C)C	0.0797 µM	0.441 µM
CCOC(=O)Cn1c(-c2nonc2NC(=O)c2ccccc2F)nc2ccccc21	21.8 µM	> 100 µM
O=C(NO)c1ccc(Cn2c(=O)n(-c3ccccc3)c(=O)c3ccccc32)cc1	0.542 µM	2.23 µM
OCCn1cc(-c2cnc3nnn(Cc4ccc5ncccc5c4)c3n2)cn1	98.8 µM	> 100 µM
Cc1cc(NCc2cc(Nc3ccnc4cc(Cl)ccc34)ccc2F)nc(N2CCSCC2)n1	1.92 µM	4.77 µM
CN(C)c1ccc(Nc2c3ccccc3nc3cc(NC(=O)CCN4CCCC4)ccc23)cc1	0.29 µM	1.13 µM
CC(C)=CC(=O)N[C@@H]1CC2CCC3C(CC[C@@]4(C)C3CC[C@@H]4C(C)N(C)C)[C@@]2(C)C[C@@H]1O (stereo partly drawn)	1.54 µM	8.98 µM
COC1C(CO)OC(n2c3c(Cl)cccc3c3c4c(c5c6cccc(Cl)c6[nH]c5c32)C(=O)NC4=O)C(O)C1O (stereo not drawn)	0.0743 µM	0.352 µM
Fc1ccc([C@@H]2CCNC[C@H]2COc2ccc3c(c2)OCO3)cc1	5.33 µM	21 µM
O=C(c1nn(-c2ccc(Cl)cc2)cc1O)n1nc(C(F)(F)F)cc1-c1ccccc1	4.5 µM	> 100 µM
COc1ccc(C2=N[C@@H](c3ccc(Cl)cc3)[C@@H](c3ccc(Cl)cc3)N2C(=O)N2CCNC(=O)C2)c(OC(C)C)c1	12.2 µM and 11.5 µM and 12.7 µM	25.2 µM and 24.5 µM and 26.6 µM
Clc1ccc2nc(Cl)c3ccccc3c2c1	10.5 µM	38.7 µM
O=C(CCN1CCCC1)Nc1ccc2c(NCCc3ccccc3)c3ccccc3nc2c1	0.284 µM	1.04 µM
Cc1ccc(-c2cc(-c3ccc(C)cc3)nc(N3CCN(CCNc4ccnc5cc(Cl)ccc45)CC3)n2)cc1	1.74 µM	8.3 µM
c1ccc2cc(C[n+]3ccn(Cc4ccc5ccccc5n4)c3)ccc2c1	0.0807 µM and 0.611 µM	0.496 µM and 4.14 µM
CCN(CC)CCOc1ccc(C(=C(c2ccccc2)C2CCCC2)c2ccc(OCCN(CC)CC)cc2)cc1	2.3 µM	5.51 µM
COc1cc(C(=O)O/N=C(\N)Cc2cccc3ccccc23)cc(OC)c1OC	15.7 µM	33.2 µM

SMILES	GI50	TGI
O=C(O)c1cn(C2CC2)c2cc(N3CCNCC3)c(F)cc2c1=O	> 100 µM	> 100 µM
O=C1CC(c2ccsc2)c2snc(-c3ccc(Cl)cc3)c2N1 (stereo not drawn)	0.291 µM	1.72 µM
C#C[C@]1(O)CC[C@H]2[C@@H]3CC=C4c5sc(NCc6ccccc6)nc5CC[C@]4(C)[C@H]3CC[C@@]21C	4.4 µM	18.3 µM
C=C(C)[C@@H]1CC[C@]2(C(=O)O)CC[C@]3(C)[C@H](CC[C@@H]4[C@@]5(C)C/C(=C/c6cccc(I)c6)C(=O)C(C)(C)[C@@H]5CC[C@]43C)[C@@H]12	2.45 µM	11.1 µM
O=C(Nc1ccc(Nc2ccncc2)cc1)c1ccc(Nc2ccnc3ccc([N+](=O)[O-])cc23)cc1[N+](=O)[O-]	1.75 µM	18.3 µM
COc1cc(-c2nc(-c3ccc(-c4nc5ccc(F)cc5[nH]4)cc3)no2)cc(OC)c1OC	3.01 µM	17.5 µM
CN1CCN(c2ccc3nc(-c4[nH]ncc4Nc4ncnc5c4OCCCN5)[nH]c3c2)CC1	< 0.01 µM	0.0211 µM
Nc1nccc2c1ccn2-c1cccc(NC(=O)c2ccc(N3CCOCC3)c(C(F)(F)F)c2)c1	0.331 µM	3.19 µM
COc1ccc(/C=N\NC(=O)c2ccc3nc(-c4ccc(Cl)cc4)[nH]c3c2)cc1	1.94 µM	4.55 µM
COc1cc(-c2nc3cc(Cl)c(Cl)cc3[nH]2)ccc1OCC(=O)N=Nc1c(O)[nH]c2ccc(Cl)cc12	0.256 µM	0.697 µM
COc1ccc(C(=O)/C=C/c2cc(-c3ccc4c(c3)OCO4)n[nH]2)cc1OC	1.86 µM	4.52 µM
CNC(=O)c1cc(Oc2ccc3nc(N[C@@H]4CCCC[C@H]4O)sc3c2)ccn1	23.7 µM	> 89.7 µM
O=C(Nc1ccc(Oc2ccc(NC(=O)Nc3ccc([N+](=O)[O-])cc3)cc2)cc1)Nc1ccc([N+](=O)[O-])cc1	1.56 µM	14.1 µM
C[C@@H](Oc1cc(-n2cnc3ccc(OCC4CCN(C)CC4)cc32)sc1C(N)=O)c1ccccc1Cl	0.0093 µM	0.22 µM
O=c1c2c(=NCCN3CCCC3)cc3c(=O)n(CCCN4CCOCC4)c(=O)c4ccc(c(O)n1CCCN1CCOCC1)c2c4-3	0.109 µM	0.335 µM
COc1ccc(-c2nc(-c3ccccn3)c(-c3ccccn3)n2CC(C)C)cc1OC1CCCC1	38.4 µM	136 µM
CCCCCCCCCCC[C@@H](C[C@H]1OC(=O)[C@H]1CCCCCC)OC(=O)[C@@H](CC(C)C)NC=O	14.1 µM	48.3 µM
COc1cc(/C(=C2/O[C@@H]([C@H]3COC(C)(C)O3)[C@H]3OC(C)(C)O[C@@H]23)c2ccc3c(c2)OCO3)cc(OC)c1OC	7.93 µM	> 25 µM
COc1cnc2c(c1)C(=O)c1c-2n(CCCNCCN2CCOCC2)c(=O)c2cc([N+](=O)[O-])ccc12	0.124 µM	0.605 µM
O=C1NC(=O)[C@@H](c2c[nH]c3ccccc23)[C@@H]1c1c[nH]c2ccccc12	> 25 µM	> 25 µM
CCOC(=O)c1ccc(N(C=O)CCC(=O)CCl)cc1	0.382 µM	2.13 µM
COc1ccc(-c2nnc(SCC(=O)Nc3ccc(C(=O)/C=C/c4cc(OC)c(OC)c(OC)c4)cc3)n2-c2ccccc2)cc1OC	4.61 µM	> 10 µM
CCSc1ccc([C@@H]2[C@@H](N)C(=O)N2c2cc(OC)c(OC)c(OC)c2)cc1	0.0775 µM	> 100 µM
CCCCCCCCCCCC1=NC(C)(C)CN1CC(C)O (stereo not drawn)	2.11 µM	10.9 µM
